In patent US20250145595A1, “ANTAGONISTS OF THE MUSCARINIC ACETYLCHOLINE RECEPTOR M4” (Vanderbilt University, priority 2021, published 2025):

Assays:
[1] = biological target: T1, Human M4 (Homo sapiens, UniProt P08173); experiment: mAChR M4 cell-based functional assay (calcium flux, antagonism of EC80 acetylcholine response, M4/Gqi5/CHO-K1 cells); conditions: % ACh maximum at 30 μM
T1 construct: expressed in transfected cells; host or cells: CHO-K1 (ATCC), stably co-transfected with Gqi5
T1 sequence (P08173 1-479): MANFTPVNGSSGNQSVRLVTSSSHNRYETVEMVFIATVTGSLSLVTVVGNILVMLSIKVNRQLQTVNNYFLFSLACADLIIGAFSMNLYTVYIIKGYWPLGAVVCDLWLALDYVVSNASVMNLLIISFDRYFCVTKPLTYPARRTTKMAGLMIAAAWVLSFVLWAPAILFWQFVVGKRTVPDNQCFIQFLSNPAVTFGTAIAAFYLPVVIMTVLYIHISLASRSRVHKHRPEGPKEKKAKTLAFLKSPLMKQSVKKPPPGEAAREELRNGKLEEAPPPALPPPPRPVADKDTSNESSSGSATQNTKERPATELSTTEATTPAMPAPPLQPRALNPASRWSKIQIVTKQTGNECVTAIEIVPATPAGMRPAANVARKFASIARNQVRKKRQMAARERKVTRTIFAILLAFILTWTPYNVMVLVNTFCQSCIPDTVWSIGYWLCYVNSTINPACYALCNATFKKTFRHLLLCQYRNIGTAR
Method: Human or rat M4 cDNA, along with the chimeric G protein Gqi5, were transfected into Chinese hamster ovary (CHO-K1) cells purchased from the American Type Culture Collection using Lipofectamine2000. M4/Gqi5/CHO cells were grown in Ham's F-12 medium containing 10% heat-inactivated fetal bovine serum (FBS), 20 mM HEPES, 500 μg/mL G418 sulfate, and 200 μg/mL Hygromycin B.
For high throughput measurement of agonist-evoked increases in intracellular calcium, CHO-K1 cells stably expressing muscarinic receptors were plated in growth medium lacking G^418 and hygromycin at 15,000 cells/20 μL/well in Greiner 384-well black-walled, tissue culture (TC)-treated, clear-bottom plates (VWR). Cells were incubated overnight at 37° C. and 5% CO2. The next day, cells were washed using an ELX 405 (BioTek) with assay buffer; the final volume was then aspirated to 20 μL. Next, 20 μL of a […] of Fluo-4/acetoxymethyl ester (Invitrogen, Carlsbad, CA), prepared as a 2.3 mM stock in DMSO and mixed in a 1:1 ratio with 10% (w/v) Pluronic F-127 and diluted in assay buffer, was added to the wells and the cell plates were incubated for 50 min at 37° C. and 5% CO2. Dye was removed by washing with the ELX 405 and the final volume was aspirated to 20 μL. Compound master plates were formatted in a 10-point concentration-response curve (CRC) format (1:3 dilutions) in 100% DMSO with a starting concentration of 10 or 1 mM using a BRAVO liquid handler (Agilent). Test compound CRCs were then transferred to daughter plates (240 nL) using the Echo acoustic plate reformatter (Labcyte, Sunnyvale, CA) and then diluted into assay buffer (40 μL) to a 2× stock using a Thermo Fisher Combi (Thermo Fisher Scientific, Waltham, MA).
Calcium flux was measured using the Functional Drug Screening System (FDSS) 6000 or 7000 (Hamamatsu Corporation, Tokyo, Japan) as an increase in the fluorescent static ratio. Compounds were applied to cells (20 μL, 2×) using the automated system of the FDSS at 2 seconds into the protocol and the data were collected at 1 Hz. At 143 s, 10 μL of an EC20 concentration of the muscarinic receptor agonist acetylcholine was added (5×), followed by the addition of 12 μL of an EC80 concentration of acetylcholine at the 268 s time point (5×). Agonist activity was analyzed as a concentration-dependent increase in calcium mobilization upon compound addition. Positive allosteric modulator activity was analyzed as a concentration-dependent increase in the EC20 acetylcholine response. Antagonist activity was analyzed as a concentration-dependent decrease in the EC80 acetylcholine response; for the purposes of the tables herein, an IC50 (inhibitory concentration 50) was calculated as a concentration-dependent decrease of the response elicited by an EC80 concentration of acetylcholine. Concentration-response curves were generated using a four-parameter logistical equation in XLFit curve fitting software (IDBS, Bridgewater, NJ) for Excel (Microsoft, Redmond, WA) or Prism (GraphPad Software, Inc., San Diego, CA) or the Dotmatics software platform (Dotmatics, Bishop's Stortford, UK).
Compounds were synthesized as described above. Activity (IC50 and Emin) was determined in the mAChR M4 cell-based functional assay as described above and the data are shown in Table 2.

[2] = biological target: T2, Human M1 (Homo sapiens, UniProt P11229); experiment: mAChR M1 cell-based functional assay (calcium flux, antagonism of EC80 acetylcholine response, hM1 CHO-K1 cells); conditions: compound 61 versus compound 62, data of Table 3
T2 sequence (P11229 1-460): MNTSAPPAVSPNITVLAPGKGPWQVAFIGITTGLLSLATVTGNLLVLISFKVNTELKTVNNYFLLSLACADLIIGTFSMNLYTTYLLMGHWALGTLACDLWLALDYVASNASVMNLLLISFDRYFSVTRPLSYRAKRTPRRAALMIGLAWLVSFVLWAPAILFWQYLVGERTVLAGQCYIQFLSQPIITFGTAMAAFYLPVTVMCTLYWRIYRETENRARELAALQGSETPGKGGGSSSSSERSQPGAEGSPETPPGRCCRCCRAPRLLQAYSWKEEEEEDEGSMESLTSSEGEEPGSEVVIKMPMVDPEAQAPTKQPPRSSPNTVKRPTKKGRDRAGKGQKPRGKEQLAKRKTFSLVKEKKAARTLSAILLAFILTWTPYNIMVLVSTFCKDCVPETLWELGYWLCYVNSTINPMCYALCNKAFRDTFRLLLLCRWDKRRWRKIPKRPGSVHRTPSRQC
Method: hM1 cDNA was purchased from Missouri S&T cDNA Resource and used to stably transfect CHO-K1 cells purchased from the American Type Culture Collection using Lipofectamine2000. hM1 cells were grown in Ham's F-12 medium containing 10% heat-inactivated fetal bovine serum (FBS), 20 mM HEPES, and 50 μg/mL G418 sulfate.
For high throughput measurement of agonist-evoked increases in intracellular calcium, CHO-K1 cells stably expressing muscarinic receptors were plated in growth medium lacking G418 and hygromycin at 15,000 cells/20 μL/well in Greiner 384-well black-walled, tissue culture (TC)-treated, clear-bottom plates (VWR). Cells were incubated overnight at 37° C. and 5% CO2. […]
Calcium flux was measured using the Functional Drug Screening System (FDSS) 6000 (Hamamatsu Corporation, Tokyo, Japan) as an increase in the fluorescent static ratio. […] Agonist activity was analyzed as a concentration-dependent increase in calcium mobilization upon compound addition. […] Positive allosteric modulator activity was analyzed as a concentration-dependent increase in the EC20 acetylcholine response. Antagonist activity was analyzed as a concentration-dependent decrease in the EC80 acetylcholine response; for the purposes of the tables herein, an IC50 (inhibitory concentration 50) was calculated as a concentration-dependent decrease of the response elicited by an EC80 concentration of acetylcholine. […]

[3] = tested on: catalepsy induced by the DA receptor antagonist haloperidol; conditions: cited from earlier work

Compound	Human M4 Emin [1] [%]	other results
[2H]C1([2H])CC(C([2H])([2H])N2C[C@H]3C[C@H](Nc4nnc(-c5cnccc5C(F)(F)F)cc4C)C[C@H]3C2)CC([2H])([2H])O1 [Compound 18, (3aR,5s,6aS)-N-(4-methyl-6-(4-(trifluoromethyl)pyridin-3-yl)pyridazin-3-yl)-2-((tetrahydro-2H-pyran-4-yl-2,2,6,6-d4)methyl-d2)octahydrocyclopenta[c]pyrrol-5-amine]	4	
[2H]C1([2H])CC(C([2H])([2H])N2C[C@H]3C[C@H](Nc4nnc(-c5cnccc5C(F)(F)F)cc4OC)C[C@H]3C2)CC([2H])([2H])O1 [Compound 22, (3aR,5s,6aS)-N-(4-methoxy-6-(4-(trifluoromethyl)pyridin-3-yl)pyridazin-3-yl)-2-((tetrahydro-2H-pyran-4-yl-2,2,6,6-d4)methyl-d2)octahydrocyclopenta[c]pyrrol-5-amine]	2	
[2H]C([2H])([C@H]1CCCCO1)N1C[C@H]2C[C@H](Nc3ccc(-c4cccnc4C(F)(F)F)nn3)C[C@H]2C1 [Compound 49, (3aR,5s,6aS)-2-(((R)-tetrahydro-2H-pyran-2-yl)methyl-d2)-N-(6-(2-(trifluoromethyl)pyridin-3-yl)pyridazin-3-yl)octahydrocyclopenta[c]pyrrol-5-amine]	2	
[2H]C([2H])([C@H]1CCOC(C)(C)C1)N1C[C@H]2C[C@H](Nc3ccc(-c4cccnc4C(F)(F)F)nn3)C[C@H]2C1 [Compound 61, (3aR,5s,6aS)-2-(((S)-2,2-dimethyltetrahydro-2H-pyran-4-yl)methyl-d2)-N-(6-(2-(trifluoromethyl)pyridin-3-yl)pyridazin-3-yl)octahydrocyclopenta[c]pyrrol-5-amine]		remaining activity at 30 µM ([1]; CHO-K1, read-out: Human M4 Emin): 8%; human mAChR M1 antagonist activity (comparison in words) [2]: less human mAChR M1 antagonist activity than compound 62
CN1[C@@H]2C[C@@H](OC(=O)[C@H](CO)c3ccccc3)C[C@H]1[C@@H]1O[C@@H]12 [scopolamine]		reduction of haloperidol-induced catalepsy ([3]; M4KO mice): ineffective in reducing catalepsy; reversal of haloperidol-induced catalepsy ([3]; WT mice): completely reversed

Now from value to molecule, other results behind:

Human M4 Emin [1] [%]	Compound	other results
3	[2H]C([2H])(C1CCOC(C)(C)C1)N1C[C@H]2C[C@H](Nc3ccc(-c4cnccc4C(F)(F)F)nn3)C[C@H]2C1 (single isomer, unassigned) [Compound 58]	
2	[2H]C([2H])([C@@H]1CCCOC1)N1C[C@H]2C[C@H](Nc3ccc(-c4cccnc4C(F)(F)F)nn3)C[C@H]2C1 [Compound 47, (3aR,5s,6aS)-2-(((S)-tetrahydro-2H-pyran-3-yl)methyl-d2)-N-(6-(2-(trifluoromethyl)pyridin-3-yl)pyridazin-3-yl)octahydrocyclopenta[c]pyrrol-5-amine]	
